By IC50 is commonly meant the concentration needed to halve the response being measured.

T1 sequence (P26664 1658-1711): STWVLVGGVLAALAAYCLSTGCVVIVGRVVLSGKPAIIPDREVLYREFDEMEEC
T1 sequence (P26664 1027-1657): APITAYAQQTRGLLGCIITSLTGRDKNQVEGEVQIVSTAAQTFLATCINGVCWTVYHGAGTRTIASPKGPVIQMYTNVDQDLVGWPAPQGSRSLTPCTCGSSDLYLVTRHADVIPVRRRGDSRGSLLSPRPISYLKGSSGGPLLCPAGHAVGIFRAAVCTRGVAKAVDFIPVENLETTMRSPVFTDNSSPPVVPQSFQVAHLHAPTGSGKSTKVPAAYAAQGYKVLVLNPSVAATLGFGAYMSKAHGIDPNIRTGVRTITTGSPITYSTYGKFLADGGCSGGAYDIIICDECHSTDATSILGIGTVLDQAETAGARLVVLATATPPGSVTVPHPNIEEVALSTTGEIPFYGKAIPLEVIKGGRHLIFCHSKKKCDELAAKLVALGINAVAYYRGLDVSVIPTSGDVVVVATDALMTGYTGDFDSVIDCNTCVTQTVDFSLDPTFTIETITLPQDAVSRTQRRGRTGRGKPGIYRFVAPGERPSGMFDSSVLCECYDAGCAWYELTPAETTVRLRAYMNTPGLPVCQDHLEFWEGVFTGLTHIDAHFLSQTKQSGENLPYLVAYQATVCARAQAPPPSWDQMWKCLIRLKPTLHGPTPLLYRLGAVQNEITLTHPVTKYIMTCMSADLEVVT

One test addresses T1, HCV NS3-4A serine protease (full-length NS3-4A protein, genotype 1a, strain HCV-1) (Hepatitis C virus genotype 1a, UniProt P26664).
T1 construct: using the full-length NS3-4A protein (genotype 1a, strain HCV-1)
In words: HCV NS3-4A protease assay. In kind it is biochemical. The conditions noted are these: Protease IC50. How it is done: The inhibitory activity of certain compounds of Table A against HCV NS3-4A serine protease is determined in a homogenous assay using the full-length NS3-4A protein (genotype 1a, strain HCV-1) and a commercially available internally-quenched fluorogenic peptide substrate as described by Taliani, M., et al. 1996 Anal. Biochem. 240:60-67, which is incorporated by reference in its entirety.
The molecule `CC(C)N1CCCC[C@H]1C(=O)N[C@H](C(=O)N[C@H](C(=O)N1C[C@]2(C[C@H]1C(=O)NC1(C(=O)NS(=O)(=O)C3CC3)CCC1)C(C)(C)C21CCC1)C(C)(C)C)C(C)(C)C` [Compound 133, (5R,8S)-N-{1-[(cyclopropylsulfonyl)carba-moyl]cyclobutyl}-7-[(2S)-2-{[(2S)-2-({[(2S)-1-isopropylpiperidin-2-yl]carbonyl}amino)-3,3-dimethylbutanoyl]amino}-3,3-dimethylbutanoyl]-10,10-dimethyl-7-azadispiro[3.0.4.1]decane-8-carboxamide] registered an IC50 of 450 nM. In the case of `CC[C@@H]1C[C@]1(NC(=O)[C@@H]1C[C@@]2(CN1C(=O)[C@@H](NC(=O)[C@@H](NC(=O)c1cnccn1)C(C)(C)C)C(C)(C)C)C(C)(C)C21CCC1)C(=O)NS(=O)(=O)C1CC1` [Compound 134, (5R,8S)-N-{(1R,2R)-1-[(cyclopropylsulfonyl)carba-moyl]-2-ethylcyclopropyl}-7-[(2S)-2-({(2S)-3,3-dimethyl-2-[(pyrazin-2-ylcarbonyl)amino]butanoyl}amino)-3,3-dimethylbutanoyl]-10,10-dimethyl-7-azadispiro[3.0.4.1]decane-8-carboxamide], half-maximal inhibition (IC50) was put at 40 nM. Molecule `C=C[C@@H]1C[C@]1(NC(=O)[C@@H]1C[C@@]2(CN1C(=O)[C@@H](NC(=O)[C@@H](NC(=O)[C@H]1CCN1C(C)C)C(C)(C)C)C(C)(C)C)C(C)(C)C21CCC1)C(=O)NS(=O)(=O)C1CC1` [Compound 135, (5R,8S)-N-{(1R,2S)-1-[(cyclopropylsulfonyl)carba-moyl]-2-vinylcyclopropyl}-7-[(2S)-2-{[(2S)-2-({[(2R)-1-isopropylazetidin-2-yl]carbonyl}amino)-3,3-dimethylbutanoyl]amino}-3,3-dimethylbutanoyl]-10,10-dimethyl-7-azadispiro[3.0.4.1]decane-8-carboxamide] came in with an IC50 of 15 nM. On the same count and under the same terms, next, `C=C[C@@H]1C[C@]1(NC(=O)[C@@H]1C[C@@]2(CN1C(=O)[C@@H](NC(=O)[C@@H](NC(=O)c1c(C)n[nH]c1C)C(C)(C)C)C(C)(C)C)C(C)(C)C21CCC1)C(=O)NS(=O)(=O)C1CC1` [Compound 136, (5R,8S)-N-{(1R,2S)-1-[(cyclopropylsulfonyl)carba-moyl]-2-vinylcyclopropyl}-7-[(2S)-2-{[(2S)-2-{[(3,5-dimethyl-1H-pyrazol-4-yl)carbonyl]amino}-3,3-dimethylbutanoyl]amino}-3,3-dimethylbutanoyl]-10,10-dimethyl-7-azadispiro[3.0.4.1]decane-8-carboxamide]: 20 nM. The same measure, in the same setting: next, `C=C[C@@H]1C[C@]1(NC(=O)[C@@H]1C[C@@]2(CN1C(=O)[C@@H](NC(=O)[C@@H](NC(=O)c1c(C)nn(C)c1C)C(C)(C)C)C(C)(C)C)C(C)(C)C21CCC1)C(=O)NS(=O)(=O)C1CC1` [Compound 137, (5R,8S)-N-{(1R,2S)-1-[(cyclopropylsulfonyl)carba-moyl]-2-vinylcyclopropyl}-7-[(2S)-2-{[(2S)-3,3-dimethyl-2-{[(1,3,5-trimethyl-1H-pyrazol-4-yl)carbonyl]amino}butanoyl]amino}-3,3-dimethylbutanoyl]-10,10-dimethyl-7-azadispiro[3.0.4.1]decane-8-carboxamide]: 30 nM; `C=C[C@@H]1C[C@]1(NC(=O)[C@@H]1C[C@@]2(CN1C(=O)[C@@H](NC(=O)[C@@H](NC(=O)c1cc(C(C)(C)C)n[nH]1)C(C)(C)C)C(C)(C)C)C(C)(C)C21CCC1)C(=O)NS(=O)(=O)C1CC1` [Compound 138, (5R,8S)-7-[(2S)-2-{[(2S)-2-{[(3-tert-butyl-1H-pyrazol-5-yl)carbonyl]amino}-3,3-dimethylbutanoyl]amino}-3,3-dimethylbutanoyl]-N-{(1R,2S)-1-[(cyclopropylsulfonyl)carba-moyl]-2-vinylcyclopropyl}-10,10-dimethyl-7-azadispiro[3.0.4.1]decane-8-carboxamide]: 5.5 nM; `C=C[C@@H]1C[C@]1(NC(=O)[C@@H]1C[C@@]2(CN1C(=O)[C@@H](NC(=O)[C@@H](NC(=O)C1CN(C(C)C)C1)C(C)(C)C)C(C)(C)C)C(C)(C)C21CCC1)C(=O)NS(=O)(=O)C1CC1` [Compound 139, (5R,8S)-N-{(1R,2S)-1-[(cyclopropylsulfonyl)carba-moyl]-2-vinylcyclopropyl}-7-[(2S)-2-{[(2S)-2-{[(1-isopropylazetidin-3-yl)carbonyl]amino}-3,3-dimethylbutanoyl]amino}-3,3-dimethylbutanoyl]-10,10-dimethyl-7-azadispiro[3.0.4.1]decane-8-carboxamide]: 15 nM. In turn, `C=C[C@@H]1C[C@]1(NC(=O)[C@@H]1C[C@@]2(CN1C(=O)[C@@H](NC(=O)[C@@H](NC(=O)[C@H]1CCCN1C(C)C)C(C)(C)C)C(C)(C)C)C(C)(C)C21CCC1)C(=O)NS(=O)(=O)C1CC1` [Compound 140, (5R,8S)-N-{(1R,2S)-1-[(cyclopropylsulfonyl)carba-moyl]-2-vinylcyclopropyl}-7-[(2S)-2-{[(2S)-2-({[(2R)-1-isopropylpyrrolidin-2-yl]carbonyl}amino)-3,3-dimethylbutanoyl]amino}-3,3-dimethylbutanoyl]-10,10-dimethyl-7-azadispiro[3.0.4.1]decane-8-carboxamide] had an IC50 of 1.5 nM. The same measure, in the same setting: next, `C=C[C@@H]1C[C@]1(NC(=O)[C@@H]1C[C@@]2(CN1C(=O)[C@@H](NC(=O)[C@@H](NC(=O)[C@@H]1CCCN1C(C)C)C(C)(C)C)C(C)(C)C)C(C)(C)C21CCC1)C(=O)NS(=O)(=O)C1CC1` [Compound 141, (5R,8S)-N-{(1R,2S)-1-[(cyclopropylsulfonyl)carba-moyl]-2-vinylcyclopropyl}-7-[(2S)-2-{[(2S)-2-({[(2S)-1-isopropylpyrrolidin-2-yl]carbonyl}amino)-3,3-dimethylbutanoyl]amino}-3,3-dimethylbutanoyl]-10,10-dimethyl-7-azadispiro[3.0.4.1]decane-8-carboxamide]: 2 nM; `C=C[C@@H]1C[C@]1(NC(=O)[C@@H]1C[C@@]2(CN1C(=O)[C@@H](NC(=O)[C@@H](NC(=O)[C@H]1CCCCN1C(C)C)C(C)(C)C)C(C)(C)C)C(C)(C)C21CCC1)C(=O)NS(=O)(=O)C1CC1` [Compound 142, (5R,8S)-N-{(1R,2S)-1-[(cyclopropylsulfonyl)carba-moyl]-2-vinylcyclopropyl}-7-[(2S)-2-{[(2S)-2-({[(2R)-1-isopropylpiperidin-2-yl]carbonyl}amino)-3,3-dimethylbutanoyl]amino}-3,3-dimethylbutanoyl]-10,10-dimethyl-7-azadispiro[3.0.4.1]decane-8-carboxamide]: 3 nM.

`C=C[C@@H]1C[C@]1(NC(=O)[C@@H]1C[C@@]2(CN1C(=O)[C@@H](NC(=O)[C@@H](NC(=O)[C@@H]1COCCN1C(C)C)C(C)(C)C)C(C)(C)C)C(C)(C)C21CCC1)C(=O)NS(=O)(=O)C1CC1` [Compound 143, (5R,8S)-N-{(1R,2S)-1-[(cyclopropylsulfonyl)carba-moyl]-2-vinylcyclopropyl}-7-[(2S)-2-{[(2S)-2-({[(3S)-4-isopropylmorpholin-3-yl]carbonyl}amino)-3,3-dimethylbutanoyl]amino}-3,3-dimethylbutanoyl]-10,10-dimethyl-7-azadispiro[3.0.4.1]decane-8-carboxamide] displayed an IC50 of 4 nM.

The molecule `C=CCC1(S(=O)(=O)NC(=O)[C@@]2(NC(=O)[C@@H]3C[C@@]4(CN3C(=O)[C@@H](NC(=O)[C@@H](NC(=O)[C@@H]3CCCCN3C(C)C)C3CCCCC3)C(C)(C)C)C(C)(C)C43CCC3)C[C@H]2C=C)CC1` [Compound 144, (5R,8S)-N-[(1R,2S)-1-{[(1-allylcyclopropyl)sulfonyl]carba-moyl}-2-vinylcyclopropyl]-7-[(2S)-2-{[(2S)-2-cyclohexyl-2-({[(2S)-1-isopropylpiperidin-2-yl]carbonyl}amino)acetyl]amino}-3,3-dimethylbutanoyl]-10,10-dimethyl-7-azadispiro[3.0.4.1]decane-8-carboxamide] gave an IC50 of 1 nM.

Still in this test, the particulars now being: read-out: Protease IC50.
Turning to “(5R,8S)-7-[(2S)-2- ({cyclohexyl[(1H-pyrazol-4- ylcarbonyl)amino]acetyl} amino)-3,3-dimethylbutanoyl]-N- {(1R,2S)-1- [(cyclopropylsulfonyl)carba- moyl]-2-vinylcyclopropyl}- 10,10-dimethyl-7- azadispiro[3.0.4.1]decane-8- carboxamide [Compound 106]”, the IC50 was found to be 1 nM. The same measure, in the same setting: next, “(5R,8S)-7-[(2S)-2-{[(2S)-2- cyclohexyl-2-({[(2S)-1- isopropylpiperidin-2- yl]carbonyl}amino)acetyl] amino}-3,3-dimethylbutanoyl]-N- {(1R,2S)-1- [(cyclopropylsulfonyl)carba- moyl]-2-vinylcyclopropyl}- 10,10-dimethyl-7- azadispiro[3.0.4.1]decane-8- carboxamide [Compound 21]”: 0.5 nM; “(5R,8S)-7-[(2S)-2-{[{[(5- chloro-1H-indol-2- yl)carbonyl]amino}(cyclohex- yl)acetyl]amino}-3,3- dimethylbutanoyl]-N- {(1R,2S)-1- [(cyclopropylsulfonyl)carba- moyl]-2-vinylcyclopropyl}- 10,10-dimethyl-7- azadispiro[3.0.4.1]decane-8- carboxamide [Compound 129]”: 15 nM; “(5R,8S)-7-{(2S)-2- [(cyclohexyl{[(1- methylcyclohexyl)carbonyl] amino}acetyl)amino]-3,3- dimethylbutanoyl}-N- {(1R,2S)-1- [(cyclopropylsulfonyl)carba- moyl]-2-vinylcyclopropyl}- 10,10-dimethyl-7- azadispiro[3.0.4.1]decane-8- carboxamide [Compound 128]”: 5 nM. Same read-out and setting: the result for “(5R,8S)-N-{(1R,2S)-1- [(cyclopropylsulfonyl)carba- moyl]-2-vinylcyclopropyl}-7- [(2S)-2-({(2S)-3,3-dimethyl- 2-[(piperidin-1- ylcarbonyl)amino]butanoyl} amino)-3,3-dimethylbutanoyl]- 10,10-dimethyl-7- azadispiro[3.0.4.1]decane-8- carboxamide [Compound 57]” reads 25 nM.

The values above are taken from patent publication US20110182850A1, “ORGANIC COMPOUNDS AND THEIR USES” (priority 2009, published 2011).
